Experimental data: patent US20090105197A1 (priority 2001, published 2009)
“And” between values parts separate entries of the source, which are not always exact repeats. Equal entries are not always repeated.

Columns and labels:
[1] = tested on: acetic acid-induced writhing in mice; assay: animal or person; format: in vivo, Kunming mice; conditions: for ID95 (95% inhibition dose) of aspirin: i.m.
[2] = tested on: heat-induced tail flick in mice; conditions: mouse, in vivo
[3] = Mus musculus, im, read-out: inhibition Rate (%)
[4] = combined with small doses of TTX (1/25 and 1/50 LD50) versus aspirin alone

| SMILES | Average Writhing movements ([1]; ASP alone 25 mg/kg i.m.) | Average Writhing movements ([1]; ASP alone 50 mg/kg i.m.) | Average Writhing movements ([1]; ASP alone 100 mg/kg i.m.) | Average Writhing movements ([1]; ASP alone 150 mg/kg i.m.) | Average Writhing movements ([1]; ASP alone 200 mg/kg i.m.) | inhibition at 25 mg/kg [1, 3] [%] | inhibition at 50 mg/kg [1, 3] [%] | inhibition at 100 mg/kg [1, 3] [%] | inhibition at 150 mg/kg [1, 3] [%] | inhibition at 200 mg/kg [1, 3] [%] | ID95 (95% inhibition dose) of aspirin ([1]; aspirin alone) [mg/kg] | ID95 (95% inhibition dose) of aspirin ([1]; aspirin alone, listed as aspirin) | ID95 (95% inhibition dose) of aspirin ([1]; aspirin combined with TTX 0.39 μg/kg (1/50 LD50)) | ID95 (95% inhibition dose) of aspirin ([1]; aspirin combined with TTX 0.79 μg/kg (1/25 LD50)) | reduction of ID50 of aspirin [1, 4] | reduction of ID95 of aspirin [1, 4] | Average Writhing movements ([1]; mouse, in vivo, 3 mg/kg) | Average Writhing movements ([1]; mouse, in vivo, ip, 3 mg/kg) | analgesic effect with escalating doses [2] |
| --- | --- | --- | --- | --- | --- | --- | --- | --- | --- | --- | --- | --- | --- | --- | --- | --- | --- | --- | --- |
| CC(=O)Oc1ccccc1C(=O)O [ASP, Aspirin] | 25.1 ± 14.5 | 19.3 ± 13.8 | 12.0 ± 9.2 | 5.2 ± 5.7 | 2.7 ± 1.9 | 35.6 | 50.6 | 69.3 | 86.6 | 93.2 | 361.8 | 361.8 mg/kg and 361.77 mg/kg | 154.3 mg/kg and 154.33 mg/kg | 94.5 mg/kg and 94.47 mg/kg | exceeded two folds | exceeded two folds |  |  |  |
| NC1=N[C@H](O)[C@H]2[C@H]3O[C@]4(O)O[C@@H]([C@@H](O)[C@@]2(N1)[C@@H]4O)[C@]3(O)CO [TTX, Tetrodotoxin] |  |  |  |  |  |  |  |  |  |  |  |  |  |  |  |  | 28.2 ± 9.65 | 23.2 ± 11.7 | did not increase markedly with escalating doses |
